Results taken from patent publication US10004701B2, “Methods and compositions for treating infection” (UNIVERSITY OF ROCHESTER, priority 2012, dated 2018).
Counter-ions that a name gives are not always drawn. Like-named read-outs stand apart in the source and are kept apart here.

Experiments:
Assay in all cases: AK assay 384-well format, Prestwick library screening
E. faecium = format: cell-based, Enterococcus faecium; details: 50 μM final drug concentration; for fold induction at 50 µM: Enterococcus faecium, 3 h
[1] = test system: S. aureus strain USA300-0114; format: cell-based, Staphylococcus aureus; details: 50 μM final drug concentration; for fold induction at 50 µM: Staphylococcus aureus, USA300, 3 h
K. pneumoniae = format: cell-based, Klebsiella pneumoniae; details: 50 μM final drug concentration; for fold induction at 50 µM: Klebsiella pneumoniae, 3 h
[2] = test system: A. baumannii strain 98-37-09; format: cell-based, Acinetobacter baumannii; details: 50 μM final drug concentration; for fold induction at 50 µM: Acinetobacter baumannii, 983709, 3 h
P. aeruginosa = format: cell-based, Pseudomonas aeruginosa; details: 50 μM final drug concentration; for fold induction at 50 µM: Pseudomonas aeruginosa, 3 h
E. cloacae = format: cell-based, Enterobacter cloacae; details: 50 μM final drug concentration; for fold induction at 50 µM: Enterobacter cloacae, 3 h
E. coli = format: cell-based, Escherichia coli; details: 50 μM final drug concentration; for fold induction at 50 µM: Escherichia coli, 3 h
[3] = cutoff for positive-scoring molecules 3-fold increase, read-out: AK-based Prestwick Library Screening Results, E. faecium (fold increase in extracellular AK activity)
[4] = cutoff for positive-scoring molecules 3-fold increase, read-out: AK-based Prestwick Library Screening Results, S. aureus (fold increase in extracellular AK activity)
[5] = cutoff for positive-scoring molecules 3-fold increase, read-out: AK-based Prestwick Library Screening Results, K. pneumoniae (fold increase in extracellular AK activity)
[6] = cutoff for positive-scoring molecules 3-fold increase, read-out: AK-based Prestwick Library Screening Results, A. baumannii (fold increase in extracellular AK activity)
[7] = cutoff for positive-scoring molecules 3-fold increase, read-out: AK-based Prestwick Library Screening Results, P. aeruginosa (fold increase in extracellular AK activity)
[8] = cutoff for positive-scoring molecules 3-fold increase, read-out: AK-based Prestwick Library Screening Results, E. cloacae (fold increase in extracellular AK activity)
[9] = cutoff for positive-scoring molecules 3-fold increase, read-out: AK-based Prestwick Library Screening Results, E. coli (fold increase in extracellular AK activity)

**Q.** What does the source list for `COc1ccc([C@@H]2CC(=O)c3c(O)cc(O)cc3O2)cc1O` [Hesperetin]?
**A.** fold induction at 50 µM (E. faecium; 384-well format, cutoff for positive-scoring molecules 3-fold increase, read-out: AK-based Prestwick Library Screening Results, E. faecium (increase in extracellular AK activity)): 0.9; fold induction at 50 µM ([1]; 384-well format, cutoff for positive-scoring molecules 3-fold increase, read-out: AK-based Prestwick Library Screening Results, S. aureus (increase in extracellular AK activity)): 0.5; fold induction at 50 µM (K. pneumoniae; 384-well format, cutoff for positive-scoring molecules 3-fold increase, read-out: AK-based Prestwick Library Screening Results, K. pneumoniae (increase in extracellular AK activity)): 0.9; fold induction at 50 µM ([2]; 384-well format, cutoff for positive-scoring molecules 3-fold increase, read-out: AK-based Prestwick Library Screening Results, A. baumannii (increase in extracellular AK activity)): 1.1; fold induction at 50 µM (P. aeruginosa; 384-well format, cutoff for positive-scoring molecules 3-fold increase, read-out: AK-based Prestwick Library Screening Results, P. aeruginosa (increase in extracellular AK activity)): 0.9; fold induction at 50 µM (E. cloacae; 384-well format, cutoff for positive-scoring molecules 3-fold increase, read-out: AK-based Prestwick Library Screening Results, E. cloacae (increase in extracellular AK activity)): 1.3; fold induction at 50 µM (E. coli; 384-well format, cutoff for positive-scoring molecules 3-fold increase, read-out: AK-based Prestwick Library Screening Results, E. coli (increase in extracellular AK activity)): 1.1

**Q.** `COc1ccc([C@@H]2CC(=O)c3c(O)cc(O[C@@H]4O[C@H](CO[C@@H]5O[C@@H](C)[C@H](O)[C@@H](O)[C@H]5O)[C@@H](O)[C@H](O)[C@H]4O)cc3O2)cc1O` [Hesperidin] was tested. Which “AK-based Prestwick Library Screening Results, E. faecium (fold increase in extracellular AK activity)” value (E. faecium; planktonic, […]) did it give?
**A.** 1.1

**Q.** What about the “AK-based Prestwick Library Screening Results, S. aureus (fold increase in extracellular AK activity)” value ([1]; planktonic, […]) of the same molecule?
**A.** 1.3

**Q.** And the “AK-based Prestwick Library Screening Results, K. pneumoniae (fold increase in extracellular AK activity)” value (K. pneumoniae; planktonic, […])?
**A.** 1.0

**Q.** What about the “AK-based Prestwick Library Screening Results, A. baumannii (fold increase in extracellular AK activity)” value ([2]; planktonic, […]) of the same molecule?
**A.** 1.2

**Q.** What about the “AK-based Prestwick Library Screening Results, P. aeruginosa (fold increase in extracellular AK activity)” value (P. aeruginosa; planktonic, […]) of the same molecule?
**A.** 1.0

**Q.** What about the “AK-based Prestwick Library Screening Results, E. cloacae (fold increase in extracellular AK activity)” value (E. cloacae; planktonic, […]) of the same molecule?
**A.** 1.4

**Q.** And the “AK-based Prestwick Library Screening Results, E. coli (fold increase in extracellular AK activity)” value (E. coli; planktonic, […])?
**A.** 1.1

**Q.** What does the source list for `C[N+](C)(C)CCCCCC[N+](C)(C)C.O.O.[Br-].[Br-]` [Hexamethonium dibromide dihydrate]?
**A.** AK-based Prestwick Library Screening Results, E. faecium (increase in extracellular AK activity) (E. faecium; 384-well format, […]): 0.9; AK-based Prestwick Library Screening Results, S. aureus (increase in extracellular AK activity) ([1]; 384-well format, […]): 0.7; AK-based Prestwick Library Screening Results, K. pneumoniae (increase in extracellular AK activity) (K. pneumoniae; 384-well format, […]): 0.7; AK-based Prestwick Library Screening Results, A. baumannii (increase in extracellular AK activity) ([2]; 384-well format, […]): 0.9; AK-based Prestwick Library Screening Results, P. aeruginosa (increase in extracellular AK activity) (P. aeruginosa; 384-well format, […]): 0.8; AK-based Prestwick Library Screening Results, E. cloacae (increase in extracellular AK activity) (E. cloacae; 384-well format, […]): 1.2; AK-based Prestwick Library Screening Results, E. coli (increase in extracellular AK activity) (E. coli; 384-well format, […]): 0.9

**Q.** Which results are given for `CC[C@H](c1ccc(O)cc1)[C@@H](CC)c1ccc(O)cc1` [Hexestrol]?
**A.** fold induction at 50 µM (E. faecium; [3]): 1.2; fold induction at 50 µM [1, 4]: 0.7; fold induction at 50 µM (K. pneumoniae; [5]): 0.7; fold induction at 50 µM [2, 6]: 3; fold induction at 50 µM (P. aeruginosa; [7]): 1.1; fold induction at 50 µM (E. cloacae; [8]): 1.6; fold induction at 50 µM (E. coli; [9]): 1.4

**Q.** How did the fold induction at 50 µM (E. faecium; planktonic, cutoff for positive 3-fold increase, read-out: AK-based Prestwick Library Screening Results, E. faecium (fold increase in extracellular AK activity)) turn out when `CCCCC(CC)CN1CN(CC(CC)CCCC)CC(C)(N)C1` (stereo not drawn) [Hexetidine] was run?
**A.** 1.1

**Q.** And the fold induction at 50 µM ([1]; planktonic, cutoff for positive 3-fold increase, read-out: AK-based Prestwick Library Screening Results, S. aureus (fold increase in extracellular AK activity))?
**A.** 1.2

**Q.** What about the fold induction at 50 µM (K. pneumoniae; planktonic, cutoff for positive 3-fold increase, read-out: AK-based Prestwick Library Screening Results, K. pneumoniae (fold increase in extracellular AK activity)) of the same molecule?
**A.** 1.4

**Q.** What about the fold induction at 50 µM ([2]; planktonic, cutoff for positive 3-fold increase, read-out: AK-based Prestwick Library Screening Results, A. baumannii (fold increase in extracellular AK activity)) of the same molecule?
**A.** 3

**Q.** And the fold induction at 50 µM (P. aeruginosa; planktonic, cutoff for positive 3-fold increase, read-out: AK-based Prestwick Library Screening Results, P. aeruginosa (fold increase in extracellular AK activity))?
**A.** 1.1

**Q.** What about the fold induction at 50 µM (E. cloacae; planktonic, cutoff for positive 3-fold increase, read-out: AK-based Prestwick Library Screening Results, E. cloacae (fold increase in extracellular AK activity)) of the same molecule?
**A.** 1.6

**Q.** What about the fold induction at 50 µM (E. coli; planktonic, cutoff for positive 3-fold increase, read-out: AK-based Prestwick Library Screening Results, E. coli (fold increase in extracellular AK activity)) of the same molecule?
**A.** 1.5

**Q.** With `CC(CNC1CCCCC1)OC(=O)c1ccccc1` (stereo not drawn) [Hexylcaine hydrochloride] as the molecule, how does the fold induction at 50 µM (E. faecium; [3]) read?
**A.** 1

**Q.** What about the fold induction at 50 µM [1, 4] of the same molecule?
**A.** 1.3

**Q.** And the fold induction at 50 µM (K. pneumoniae; [5])?
**A.** 1

**Q.** And the fold induction at 50 µM [2, 6]?
**A.** 1.3

**Q.** And the fold induction at 50 µM (P. aeruginosa; [7])?
**A.** 1.1

**Q.** And the fold induction at 50 µM (E. cloacae; [8])?
**A.** 1.4

**Q.** And the fold induction at 50 µM (E. coli; [9])?
**A.** 1.2
